Measurements as given in publication PMC7367369, “A small library of chalcones induce liver cancer cell death through Akt phosphorylation inhibition” (Scientific Reports, 2020).
Counter-ions that a name gives are not always drawn. Like-named read-outs stand apart in the source and are kept apart here.

Assays:
Format in all cases: cell-based, human
[1] = test system: Hep3B; assay: NCI-60 sulforhodamine B (SRB) cytotoxicity assay, Hep3B; conditions: 72 h, read-out: IC50 Hep3B
Description: (§1) The bioactivities of the synthesized chalcones were assessed on human liver cancer cell lines and on DPSCs with NCI-SRB assay in vitro. DPSCs used to asses the bioactivity of chalcones on untransformed control cells with the potential of hepatic lineage. […] We also included 5-Fluorouracil which is used in clinics for gastrointestinal cancers and Sorafenib. All results were normalized to DMSO negative control measurements. The experiment was performed in triplicate.
(§2) Well differentiated human primary liver cancer cell lines Huh7, HepG2 and Hep3B, and poorly differentiated Mahlavu, FOCUS and SNU475 HCC cells were cultured in Dulbecco’s Modified Eagle’s Standard (DMEM) medium supplemented with 10% Fetal Bovine Serum (FBS), 100 units/mL penicillin and 100 µg/mL streptomycin (Gibco, Invitrogen, Carlsbad, CA, USA). 0.1 mM nonessential amino acids (NEAA) which are specific to HCC cell lines also added to culture media. Cells were cultured in a 5% CO2 incubator at 37^∘C
(§3) Primary liver cancer cells Huh7, HepG2, Hep3B, Mahlavu, FOCUS, Snu475 along with hepatic progenitor Dental pulp stem cells were seeded into 96-well plates (1,000–3,000 HCC cell/well and 10,000 cells DPSC/well ) for 24 h. The cells were then treated with increasing concentrations of the chalcones ( 2.5-40μM ). DMSO (AppliChem Biochemica, Darmstadt, Germany) was used as negative control. The growth has stopped at the end of 72 h by fixing cold with 10% (v/v) trichloroacetic acid (Merck, Schuchardt, Germany). Cells were then stained with 0.4% (m/v) of sulforhodamine (Sigma-Aldrich, St. Louis, USA) in 1% acetic acid solution. […] All experiments were done in triplicate.

[2] = test system: FOCUS; assay: NCI-60 sulforhodamine B (SRB) cytotoxicity assay, FOCUS; conditions: 72 h, read-out: IC50 FOCUS
Description: as §1, §2, §3

[3] = test system: dental pulp stem cells (DPSC); assay: NCI-60 sulforhodamine B (SRB) cytotoxicity assay, dental pulp stem cells; conditions: 72 h, read-out: IC50 DPSC
Description: as §1
Dental pulp stem cells (DPSCs) were isolated from anonymised unidentified healthy intact wisdom tooth. DPSCs were isolated within few hours upon wisdom teeth surgery from patients above 18 years old. All were informed about the procedures, and their consents were obtained. Teeth were broken carefully in order to reach the dental pulp area. […] Then, the cells were seeded onto flasks in 10ml DMEM-F12 media (Lonza) supplemented with 1% penicillin/streptomycin solution (Hyclone) and 15% FBS (Fetal Bovine Serum,Hyclone, Logan, UT, USA) and cultured in a 5% CO2 incubator at 37^∘C .
as §3

[4] = test system: HepG2; assay: NCI-60 sulforhodamine B (SRB) cytotoxicity assay, HepG2; conditions: read-out: IC50 HepG2
Description: as §1, §2, §3

[5] = test system: SNU475; assay: NCI-60 sulforhodamine B (SRB) cytotoxicity assay, SNU475; conditions: read-out: IC50 SNU475
Description: as §1, §2, §3

[6] = test system: Huh7; assay: NCI-60 sulforhodamine B (SRB) cytotoxicity assay, Huh7; conditions: read-out: IC50 Huh7
Description: as §1, §2
Primary liver cancer cells Huh7, HepG2, Hep3B, Mahlavu, FOCUS, Snu475 along with hepatic progenitor Dental pulp stem cells were seeded into 96-well plates (1,000–3,000 HCC cell/well and 10,000 cells DPSC/well ) for 24 h. The cells were then treated with increasing concentrations of the chalcones ( 2.5-40μM ). DMSO (AppliChem Biochemica, Darmstadt, Germany) was used as negative control. The growth has stopped at the end of 72 h by fixing cold with 10% (v/v) trichloroacetic acid (Merck, Schuchardt, Germany). Cells were then stained with 0.4% (m/v) of sulforhodamine (Sigma-Aldrich, St. Louis, USA) in 1% acetic acid solution. The absorbency values were acquired at 515 nm. All experiments were done in triplicate.

[7] = test system: Mahlavu; assay: NCI-60 sulforhodamine B (SRB) cytotoxicity assay, Mahlavu; conditions: 72 h, read-out: IC50 Mahlavu
Description: as §1, §2, §3

[8] = Homo sapiens, Hep3B, SRB, 2.5–40 μM, triplicate
[9] = Homo sapiens, SRB, 2.5–40 μM, triplicate
[10] = Homo sapiens, SRB, 2.5–40 μM, triplicate, untransformed control cells
[11] = Homo sapiens, HepG2, SRB, 72 h, 2.5–40 μM, triplicate
[12] = Homo sapiens, SNU-475, SRB, 72 h, 2.5–40 μM, triplicate
[13] = Homo sapiens, Huh-7, SRB, 72 h, 2.5–40 μM, triplicate
[14] = Homo sapiens, Mahlavu, SRB, 2.5–40 μM, triplicate
[15] = SRB, 72 h, 2.5–40 μM, triplicate

Row | SMILES | IC50 [1, 8] | IC50 [2, 9] | IC50 [3, 10] | IC50 [4, 11] | IC50 [5, 12] | IC50 [6, 13] | IC50 [7, 14] | also measured
1 | COc1ccc(C(=O)/C=C/c2ccccc2)cc1 [compound 3] | 18 µM | 20 µM | > 40 µM | 7.6 µM | 13.1 µM | 6.4 µM | 9.4 µM | –
2 | COc1ccc(/C=C/C(=O)c2ccc(OC)cc2)cc1 [compound 8] | 22.1 µM | 21.5 µM | > 40 µM | 26 µM | 21.6 µM | 17.9 µM | 17.3 µM | –
3 | Oc1cc(O)c2c(c1)O[C@H](c1ccc(O)c(O)c1)[C@@H](O)C2 [Catechin hydrate, reference compound] | – | – | – | – | – | – | – | IC50 ([1]; SRB, 2.5–40 μM, triplicate): > 40 µM; IC50 ([2]; SRB, 2.5–40 μM, triplicate): > 40 µM; IC50 ([3]; SRB, 2.5–40 μM, triplicate, untransformed control cells): > 40 µM; IC50 [4, 15]: > 40 µM; IC50 [5, 15]: > 40 µM; IC50 [6, 15]: > 40 µM; IC50 ([7]; SRB, 2.5–40 μM, triplicate): > 40 µM
4 | O=c1c(O)c(-c2ccc(O)c(O)c2)oc2cc(O)cc(O)c12 [Quercetin, reference compound] | 21.8 µM | 17.9 µM | 21.2 µM | 8.4 µM | 11.6 µM | 12.5 µM | 11.3 µM | –
5 | COc1ccc(/C=C/C(=O)c2ccccc2)cc1 [compound 6] | – | – | – | – | – | – | – | IC50 ([1]; Homo sapiens, Hep3B): 7.8 µM; IC50 ([2]; Homo sapiens): 6.5 µM; IC50 ([3]; Homo sapiens): > 40 µM; IC50 ([4]; Homo sapiens, HepG2, 72 h): 7.6 µM; IC50 ([5]; Homo sapiens, SNU-475, 72 h): 10 µM; IC50 ([6]; Homo sapiens, Huh-7, 72 h): 6.4 µM; IC50 ([7]; Homo sapiens, Mahlavu): 6.3 µM
6 | COc1ccc(C(=O)/C=C/c2ccc(Cl)cc2)cc1 [compound 10] | 16.5 µM | 15.9 µM | > 40 µM | 13.9 µM | 20 µM | 11.9 µM | 14.6 µM | –
7 | O=C(/C=C/c1cccc([N+](=O)[O-])c1)c1ccccc1 [compound 4] | > 40 µM | > 40 µM | > 40 µM | > 40 µM | 23.8 µM | > 40 µM | 24.8 µM | –
8 | O=c1[nH]cc(F)c(=O)[nH]1 [5-Fluorouracil, reference compound] | 15.2 µM | 7.7 µM | 23.7 µM | 5 µM | – | 30.7 µM | 10 µM | –
9 | CNC(=O)c1cc(Oc2ccc(NC(=O)Nc3ccc(Cl)c(C(F)(F)F)c3)cc2)ccn1 [Sorafenib, reference compound] | – | – | 7.1 µM | 5.6 µM | 7.5 µM | – | 7.9 µM | IC50 ([6]; Homo sapiens, Huh-7, 72 h): 1.3 µM
10 | COc1ccc(Cc2nccc3cc(OC)c(OC)cc23)cc1OC [Papaverine hydrochloride, reference compound] | 20.4 µM | 1.7 µM | > 40 µM | 4.9 µM | 17.8 µM | – | > 40 µM | IC50 ([6]; Homo sapiens, Huh-7, 72 h): 8.5 µM
11 | COc1ccc(/C=C/C(=O)c2cccc([N+](=O)[O-])c2)cc1 [compound 7] | > 40 µM | > 40 µM | > 40 µM | > 40 µM | > 40 µM | > 40 µM | 31.1 µM | –
